From ChEMBL document CHEMBL1152694, “Synthetic medicinal chemistry of selected antimalarial natural products” (Bioorg Med Chem, 2009)

Tests used:
[1] = Selectivity ratio of cytotoxicity to human KB cells to antimalarial activity against Plasmodium falciparum; type: cell-based
Plasmodium berghei = experiment: Antimalarial activity against Plasmodium berghei infected mice (Mus musculus); type: functional

Row | SMILES | selectivity ratio [1] | ED50 (Plasmodium berghei)
1 | CC[C@](C)(O)C(=O)O[C@H]1C(=O)O[C@@H]2C[C@H]3C(C)=CC(=O)[C@@H](O)[C@]3(C)[C@H]3[C@@]4(O)OC[C@]32[C@@H]1[C@@H](C)[C@H]4O [GLAUCARUBINONE] | 285 | 
2 | CC1(C)[C@H](n2cnc3ccccc3c2=O)CC[C@H]2[C@@H](O)CCCN21 |  | 145 µmol/kg
3 | CC1(C)[C@@H](n2cnc3ccccc3c2=O)C(=O)C[C@@H]2[C@@H](O)CCCN21 |  | 6 µmol/kg
